Assay results from PubChem BioAssay (NCI).
“And” between values parts separate entries of the source, which are not always exact repeats. Identical values can stand only once.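 Step 1: Grow cells in 96-well plates. Step 2: Expose to compound for 48 hours at 5 concentrations. Step 3: Interpolate endpoints linearly; if unreached, use highest concentration. Abbreviation: GI50, concentration required for 50% inhibition of growth. TGI marks complete inhibition of growth.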 *1 amine or outer side, *2 acyl side, *3 side chain or, on linkers, in order; H or OH if unused. Where a SMILES comes first, the peptide text is derived from it. Bridges are numbered along the chain shown (N, C = ends). Roman numbers before positions name the chains, in order. [ ]: non-standard residue; d: D form. Actinocin(9to1) = Cc1c2oc3c(C)ccc(C(=O)[*:1])c3nc-2c(C(=O)[*:2])c(N)c1=O; NMeV = CN[CH](C(=O)O)C(C)C; Sar = CNCC(=O)O

How the values were obtained:
Test in all cases: NCI tumour cell line growth inhibition, 48 h
SF-268 CNS = tested on: SF-268 CNS
K-562 leukemia = tested on: K-562 leukemia
SF-295 CNS = tested on: SF-295 CNS
MCF7 breast = tested on: MCF7 breast
NCI-H460 lung = tested on: NCI-H460 lung
HL-60(TB) leukemia = tested on: HL-60(TB) leukemia
SW-620 colon = tested on: SW-620 colon
NCI/ADR-RES ovarian = tested on: NCI/ADR-RES ovarian
SK-MEL-5 melanoma = tested on: SK-MEL-5 melanoma
CAKI-1 renal = tested on: CAKI-1 renal

| Compound | TGI (SF-268 CNS) | TGI (K-562 leukemia) | TGI (SF-295 CNS) | TGI (MCF7 breast) | TGI (NCI-H460 lung) [µM] | TGI (HL-60(TB) leukemia) | TGI (SW-620 colon) | TGI (NCI/ADR-RES ovarian) | TGI (SK-MEL-5 melanoma) | TGI (CAKI-1 renal) | GI50 (NCI/ADR-RES ovarian) [nM] | GI50 (SF-268 CNS) [nM] |
| --- | --- | --- | --- | --- | --- | --- | --- | --- | --- | --- | --- | --- |
| C#CC[C@@]12CC(=O)C[C@@H]1CCC1(C2)OCCO1 (tested in a mixture with another compound) | > 100 µM | > 100 µM | > 100 µM | > 100 µM | > 100 | > 100 µM | > 100 µM | > 100 µM | > 100 µM |  |  |  |
| COc1ccc(C2C3=C(N=C4SC(C(C)=O)=C(C)N42)c2ccccc2CC3)cc1 (stereo not given) | > 100 µM |  | > 100 µM | > 100 µM |  | 58 µM | > 100 µM |  | > 100 µM |  |  |  |
| NS(=O)(=O)c1nc(S(=O)(=O)O)c2[nH]cnc2n1 | > 100 µM | > 100 µM | > 100 µM | > 100 µM | > 100 |  | > 100 µM | > 100 µM | > 100 µM | > 100 µM |  |  |
| CCCC[C@@H](C)/C=C1\CN2CCC[C@H]2[C@@](C)(OCc2ccccc2)[C@@H]1O | > 50 µM | > 50 µM | > 50 µM | > 50 µM | > 50 |  | > 50 µM | > 50 µM | > 50 µM | > 50 µM |  |  |
| c1nc(NCCc2cnc[nH]2)c2[nH]cnc2n1 | > 100 µM | > 100 µM | > 100 µM |  | > 100 | > 100 µM | > 100 µM | > 100 µM | > 100 µM | > 100 µM |  |  |
| COC(C/C(=C/CO[Si](C(C)C)(C(C)C)C(C)C)C(=O)N(COCC[Si](C)(C)C)c1ccccc1I)OC |  | > 100 µM | 17.4 µM |  | > 100 |  | > 100 µM | > 100 µM | > 100 µM | > 100 µM |  |  |
| Cc1c2oc3c(C)ccc(C(=O)NC4C(=O)NC(Cc5ccccc5)C(=O)N5CCCC5C(=O)N(C)CC(=O)N(C)C(C(C)C)C(=O)OC4C)c3nc-2c(C(=O)NC2C(=O)NC(Cc3ccccc3)C(=O)N3CCCC3C(=O)N(C)CC(=O)N(C)C(C(C)C)C(=O)OC2C)c(N)c1=O (stereo not given) (I: TFP[Sar][NMeV] / II: TFP[Sar][NMeV]; ester I:1-I:C, II:1-II:C; linker I:N-II:N via Actinocin(9to1); configuration not given here) | 0.121 µM and 0.528 µM | 0.00316 µM | 0.0465 µM and 0.413 µM | > 100 µM |  | < 0.001 µM |  | > 100 µM | 0.0192 µM and 0.0125 µM | 0.21 µM | 877 |  |
| C[C@@H]1[C@@H](C)C(c2ccccc2)O[Si]1(C(C)(C)C)C(C)(C)C (stereo not given in full) | 61.2 µM | 63.6 µM | 30.2 µM | 31.9 µM | 32.2 |  | 34.9 µM | 33 µM | 31.5 µM | 33 µM |  |  |
| N#Cc1nc2cc(Cl)ccc2nc1N1CCN(c2ccc([N+](=O)[O-])cc2)CC1 | > 100 µM | > 100 µM | > 100 µM | > 100 µM | > 100 |  | > 100 µM | > 100 µM | > 100 µM | > 100 µM |  |  |
| C#C[C@]1(O)CC[C@H]2[C@@H]3CCC4=C/C(=N/NC(=O)c5cccc6c(=O)c7ccccc7[nH]c56)CCC4[C@H]3CC[C@@]21C (stereo not given in full) | > 100 µM | > 100 µM | > 100 µM | > 100 µM |  | > 100 µM | > 100 µM | > 100 µM | 64.8 µM | > 100 µM |  |  |
| O=C(O)CCC(=O)OCN1C(=O)C2C3C=CC(C2C1=O)C1C2C(=O)N(COC(=O)CCC(=O)O)C(=O)C2C31 (stereo not given) | > 100 µM | > 100 µM | > 100 µM |  | > 54.5 | 46.7 µM | > 68.4 µM |  | > 100 µM | > 100 µM |  |  |
| Nc1cc2c(c3ccccc13)C(CCl)CN2C(=O)c1cc2cc(NC(=O)Nc3ccc4[nH]c(C(=O)N5CC(CCl)c6c5cc(N)c5ccccc65)cc4c3)ccc2[nH]1 (stereo not given) | 8.15 µM | > 100 µM | 2.99 µM | 1.4 µM | > 100 |  | 2.07 µM | 39.4 µM | 0.341 µM | 0.444 µM |  |  |
| CCC1(O)CC(OC2CC(N(C)C)C(OC3CC(O)C(OC4OC(C)C(=O)C=C4N)C(C)O3)C(C)O2)c2c(cc3c(c2O)C(=O)c2c(O)cccc2C3=O)C1C(=O)OC (stereo not given) | 2.89 µM and 1.38 µM | 0.262 µM and 1.73 µM | 1.53 µM and 1.13 µM | 0.756 µM and 2.64 µM |  | 0.5 µM and 0.079 µM | 1.76 µM and 1.2 µM | 5.5 µM and 27 µM | 0.179 µM and 0.101 µM | 0.308 µM and 0.0365 µM | 1860 | 12.7 |
| Cc1cc2[nH]c3c(C#N)c(-c4ccccc4)c(N=Nc4ccc(F)cc4)c(=O)n3c2cc1C | > 100 µM |  | > 100 µM | > 100 µM | > 100 |  | > 100 µM | > 100 µM | > 100 µM | > 100 µM |  |  |
| COc1cccc(N=N/C(=N/NC(=O)c2ccc(C)cc2)c2ccc(N(CCC#N)CCC#N)cc2OC)c1 | > 100 µM | > 100 µM | > 100 µM | > 100 µM | > 100 |  | > 100 µM | > 100 µM | > 100 µM | > 100 µM |  |  |
